Laboratory results taken from patent publication US8835134B2, “Cycloastragenol monoglucoside, preparation, pharmaceutical composition and application thereof” (Tianjin Institute of Pharmaceutical Research, priority 2007, dated 2014).

System: anesthetized open-chest dogs
Experiment: Hemodynamics of anesthetized open-chest dogs, intravenous infusion
Type: in vivo, mongrel dogs
Conditions: 0.15 mg/kg iv
Protocol: The animals were anesthetized by intravenous injection of 30 mg/kg sodium pentobarbital, tracheally intubated, and mechanically ventilated with positive air pressure. Left thoracotomy was performed through the fourth intercostal space and the heart was suspended in a pericardial cradle, the aortic root was isolated and a probe of blood flow meter (12 or 14 mm in diameter) was fixed to measure the aortic blood flow as a representation of cardiac output (CO), the circumflex branch of left coronary artery was isolated and a probe of blood flow meter (2 or 2.5 mm in diameter) was fixed to measure the coronary blood flow (CBF). A polyethylene catheter filled with heparin physiological saline was inserted through cardiac apex into the left ventricle to measure the left ventricular pressure (LVP) and left ventricular end-diastolic pressure (LVEDP), Peak positive and peak negative first derivatives of the LVP (+ LVdp/dt and − LVdp/dt) were calculated with the Acknowledge software. The systolic blood pressure (SBP), diastolic blood pressure (DBP) and mean arterial pressure (MAP) were measured by polyethylene catheter via the femoral artery, ECG □ was measured by a AC-601G ECG amplifier. The above-mentioned analog signal was input into a data acquisition workstation (MP100, BIOPAC Systems, USA) to a computer running Acknowledge (version 3.7.1).
After surgery, various indexes before administration were recorded until the indexes were stable, and then intravenous infusion administration was conducted. Thirty dogs were divided into five groups (six dogs in each group), the experiment groups were given 0.15, 0.3, 0.6 mg/kg of ASP-[…] respectively, the normal control group was given 1 ml/kg of solvent, and the positive control group was given 0.3 mg/kg of astragaloside IV. The delivery volumes were 15 ml for each dog was and the delivery velocity was 1 ml/min. The indexes were recorded at 5, 10, 15, 20, 30, 45, 60, 90 and 120 mins after drug administration. At the end of experiment, the hearts were excised and weighted. The myocardial blood flow for per hectogram (CF), coronary resistance (CR), cardiac index (CI), left ventricular work (LVW) and total peripheral resistance (TPR) were calculated according to the following formulae: CF=CBF×[…]/heart weight CR=MAP/CF CI=CO/0.11×(body weight)^2/3 LVW=CO×(MAP−5)×1.052×0.0136 TPR=MAP×79.92/CO
Data are expressed as mean±SD ( x±s), the paired t-test was used to compare the significance between before and after administration, the unpaired t-test was adopted for comparison between groups.

CC(C)(O)[C@@H]1CC[C@](C)([C@H]2[C@@H](O)C[C@@]3(C)C4C[C@H](OC5OC(CO)C(O)C(O)C5O)C5C(C)(C)[C@@H](O)CC[C@@]56C[C@@]46CC[C@]23C)O1 (stereo partly drawn) [CMG, Cycloastragenol-6-O-β-D-glucoside]
LVEDP maximum decrease: 1.1±0.4 mmHg
CF (5 min after administration): 57 ± 21.7 ml/min/100 g
CF change vs before administration (5 min after administration): (−0.7 ± 3.6) ml/min/100 g
CI (5 min after administration): 2.15 ± 0.65 L/min/m^2
CI change vs before administration (5 min after administration): (0.07 ± 0.16) L/min/m^2
CO (5 min after administration): 1.24 ± 0.38 L/min
CO change vs before administration (5 min after administration): (0.04 ± 0.09) L/min
CR (5 min after administration): 1.35 ± 0.42 mmHg/ml/min/100 g
CR change vs before administration (5 min after administration): (−0.01 ± 0.08) mmHg/ml/min/100 g
LVEDP (5 min after administration): 1.0 ± 2.3 mmHg
LVEDP change vs before administration (5 min after administration): (−0.78 ± 0.61) mmHg
LVP (5 min after administration): 105 ± 21 mmHg
LVP change vs before administration (5 min after administration): (0.1 ± 3.4) mmHg
LVW (5 min after administration): 1.15 ± 0.43 kg · m
LVW change vs before administration (5 min after administration): (0.03 ± 0.17) kg · m
TPR (5 min after administration): 4967 ± 2135 dyn · s/cm^5
TPR change vs before administration (5 min after administration): (−183 ± 313) dyn · s/cm^5
dp/dt (5 min after administration): 1205 ± 417 mmHg/s
dp/dt change vs before administration (5 min after administration): (56 ± 94) mmHg/s
−dp/dt (5 min after administration): −865 ± 286 mmHg/s
−dp/dt change vs before administration (5 min after administration): (22 ± 65) mmHg/s
CF (10 min after administration): 55.9 ± 21.6 ml/min/100 g
CF change vs before administration (10 min after administration): (−1.8 ± 5.0) ml/min/100 g
CI (10 min after administration): 2.26 ± 0.55 L/min/m^2
CI change vs before administration (10 min after administration): (0.18 ± 0.20) L/min/m^2
CO (10 min after administration): 1.31 ± 0.32 L/min
CO change vs before administration (10 min after administration): (0.10 ± 0.12) L/min
CR (10 min after administration): 1.36 ± 0.42 mmHg/ml/min/100 g
CR change vs before administration (10 min after administration): (0.00 ± 0.11) mmHg/ml/min/100 g
LVEDP (10 min after administration): 1.0 ± 2.3 mmHg
LVEDP change vs before administration (10 min after administration): (−0.73 ± 0.49) mmHg
LVP (10 min after administration): 103 ± 22 mmHg
LVP change vs before administration (10 min after administration): (−1.5 ± 3.7) mmHg
LVW (10 min after administration): 1.18 ± 0.34 kg · m
LVW change vs before administration (10 min after administration): (0.06 ± 0.19) kg · m
TPR (10 min after administration): 4568 ± 1871 dyn · s/cm^5
TPR change vs before administration (10 min after administration): (−582 ± 652) dyn · s/cm^5
dp/dt (10 min after administration): 1173 ± 407 mmHg/s
dp/dt change vs before administration (10 min after administration): (23 ± 110) mmHg/s
−dp/dt (10 min after administration): −883 ± 288 mmHg/s
−dp/dt change vs before administration (10 min after administration): (5 ± 36) mmHg/s
CF (15 min after administration): 55.9 ± 22.2 ml/min/100 g
CF change vs before administration (15 min after administration): (−1.8 ± 5.8) ml/min/100 g
CI (15 min after administration): 2.09 ± 0.45 L/min/m^2
CI change vs before administration (15 min after administration): (0.01 ± 0.24) L/min/m^2
CO (15 min after administration): 1.21 ± 0.26 L/min
CO change vs before administration (15 min after administration): (0.00 ± 0.15) L/min
CR (15 min after administration): 1.32 ± 0.38 mmHg/ml/min/100 g
CR change vs before administration (15 min after administration): (−0.03 ± 0.14) mmHg/ml/min/100 g
LVEDP (15 min after administration): 1.0 ± 2.3 mmHg
LVEDP change vs before administration (15 min after administration): (−0.73 ± 0.60) mmHg
LVP (15 min after administration): 103 ± 25 mmHg
LVP change vs before administration (15 min after administration): (−2.0 ± 4.7) mmHg
LVW (15 min after administration): 1.08 ± 0.31 kg · m
LVW change vs before administration (15 min after administration): (−0.04 ± 0.19) kg · m
TPR (15 min after administration): 4612 ± 1333 dyn · s/cm^5
TPR change vs before administration (15 min after administration): (−538 ± 1075) dyn · s/cm^5
dp/dt (15 min after administration): 1170 ± 449 mmHg/s
dp/dt change vs before administration (15 min after administration): (20 ± 113) mmHg/s
−dp/dt (15 min after administration): −875 ± 288 mmHg/s
−dp/dt change vs before administration (15 min after administration): (13 ± 49) mmHg/s
CF (20 min after administration): 54.3 ± 20.4 ml/min/100 g
CF change vs before administration (20 min after administration): (−3.4 ± 4.4) ml/min/100 g
CI (20 min after administration): 2.05 ± 0.45 L/min/m^2
CI change vs before administration (20 min after administration): (−0.03 ± 0.26) L/min/m^2
CO (20 min after administration): 1.19 ± 0.27 L/min
CO change vs before administration (20 min after administration): (−0.02 ± 0.15) L/min
CR (20 min after administration): 1.35 ± 0.39 mmHg/ml/min/100 g
CR change vs before administration (20 min after administration): (0.00 ± 0.13) mmHg/ml/min/100 g
LVEDP (20 min after administration): 1.2 ± 2.4 mmHg
LVEDP change vs before administration (20 min after administration): (−0.62 ± 0.47) mmHg
LVP (20 min after administration): 101 ± 21 mmHg
LVP change vs before administration (20 min after administration): (−3.8 ± 5.1) mmHg
